{"source": "patent US20240059668A1", "about": "“THIOHYDROXYPYRIDINE CHELATES” (LUMIPHORE, INC., priority 2020, published 2024)", "data": [{"experiment": "Stability testing of macrocyclic copper chelates: DTPA challenge analysed by reversed phase HPLC", "assay_type": "physicochemical", "conditions": "approximately 1 mM complex in 100 mM Tris-HCl buffer, pH 7.5, combined one to one with 55 mM DTPA, ambient temperature, 30 minutes", "description": "Stability testing of macrocyclic copper chelates. (FIG. 1).\nExample 13. Copper complexes 27, 39, and 44 were dissolved at approximately 1 mM concentration in 100 mM Tris-HCl buffer, pH 7.5. A solution of 55 mM diethylenetriaminepentaacetic acid (DTPA), pH 7.5 was prepared. Copper complexes were analyzed by reversed phase HPLC using an Agilent 1200 Series instrument equipped with a Zorbax Eclipse XDB-C18 4.6×150 mm 5 μm column. The method used an isocratic gradient of 0.1M triethylammonium bicarbonate, pH 7.5 (Solvent A) and 10-80% acetonitrile (Solvent B) as mobile phases. A solution of copper complex and DTPA solution combined in a ratio of one to one was prepared and mixed at ambient temperature for 30 minutes prior to analysis. Admixture of DTPA and copper complexes led to variable levels of dissociation of the copper complex, as quantified by the elution of the metal free ligand at shorter retention time.", "values": [{"substance": "Copper(II) complex of 4-((2-(2-aminoethoxy)ethyl)carbamoyl)-1^6,10^6-dimercapto-2,9,11,24-tetraoxo-16,19-dioxa-3,8,12,23-tetraaza-1,10(2,5)-dipyridin-1- iumacyclotetracosaphane 1^1,10^1-dioxide, trifluoroacetate salt [Compound 44]", "stability of the copper complex in the presence of DTPA competitor (dissociation quantified by elution of the metal free ligand)": "more stable in the presence of DTPA competitor than complex 39"}, {"substance": "Copper(II) complex of 6-(2-aminoethyl)-1^6,11^6-dimercapto-2,10,12,25-tetraoxo-17,20-dioxa-3,6,9,13,24-pentaaza-1,11(2,5)-dipyridin-1-iumacyclopentacosaphane 1^1,11^1-dioxide [Compound 39]", "stability of the copper complex in the presence of DTPA competitor (dissociation quantified by elution of the metal free ligand)": "more stable than compound 27"}, {"substance": "Copper complex of 16-(2-(4-(((S)-5-carboxy-5-(3-((S)-1,3-dicarboxypropyl)ureido)pentyl)carbamoyl)benzamido)ethyl)-1^6,11^6-dimercapto-2,10,12,20-tetraoxo-6- oxa-3,9,13,16,19-pentaaza-1,11(2,5)-dipyridin-1-iumacycloicosaphane 1^1,11^1-dioxide [Compound 27]", "stability of the copper complex in the presence of DTPA competitor (dissociation quantified by elution of the metal free ligand)": "both are more stable than compound 27"}]}]}
